Experimental findings from PubChem BioAssay (NCI) are described below.

Among the test systems are SK-MEL-2 melanoma; NCI-H23 lung; SW-620 colon; SK-MEL-5 melanoma; HT29 colon; A549 NSCLC; K-562 leukemia; HOP-92 NSCLC; IGROV1 ovarian; CAKI-1 renal.
Holding throughout (assay): inhibition of tumour cell growth, NCI panel, 48 h

“And” between values parts separate entries of the source, which are not always exact repeats. Identical values can stand only once.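 Grown in 96-well plates, cells were treated for 48 hours with each compound at five concentrations. Insufficient inhibition: endpoint recorded as highest concentration tested. Abbreviation: GI50, concentration required for 50% inhibition of growth. Definition used: TGI = concentration required for complete inhibition of growth.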

For the molecule `CC(=O)OC(C)(C)C1CC[C@]2(C)/C=C/C(C)C[C@@H](O)/C=C(\C)CC(O)C12` (stereo partly drawn), the TGI in the assay on SK-MEL-2 melanoma, in the assay with NCI-H23 lung, with SW-620 colon, with SK-MEL-5 melanoma, in the assay on HT29 colon and with A549 NSCLC was > 100 µM each time. For the same molecule, the TGI in the assay with K-562 leukemia, in the assay with HOP-92 NSCLC, with IGROV1 ovarian and with CAKI-1 renal was > 100 µM throughout.
Consider `COc1cc2c(c3oc(-c4ccc(O)cc4)c(O)c(=O)c13)CCC(C)(C)O2`, for which the GI50 is 0.326 µM in the assay with SK-MEL-2 melanoma; 0.0836 µM with NCI-H23 lung; 0.0872 µM with SW-620 colon; 0.0908 µM in the assay with SK-MEL-5 melanoma; 3.12 µM in the assay with HT29 colon; 0.27 µM in the assay on A549 NSCLC. Moreover, the GI50 in the assay with K-562 leukemia is 0.112 µM; with HOP-92 NSCLC it was 0.217 µM; in the assay on IGROV1 ovarian, 0.158 µM; in the assay with CAKI-1 renal, 0.245 µM. Further, the TGI was determined as 0.221 µM in the assay on NCI-H23 lung; 0.31 µM in the assay with SW-620 colon; 0.241 µM in the assay with SK-MEL-5 melanoma; 10.9 µM with HT29 colon; 0.729 µM with A549 NSCLC; 0.902 µM in the assay with HOP-92 NSCLC. Also, the TGI with IGROV1 ovarian was 0.526 µM; in the assay on CAKI-1 renal, 1.17 µM.
As for `COc1ccc(C2=NN(C(N)=S)C(c3ccc4c(c3)OCO4)C2)cc1` (stereo not drawn), the GI50 in the assay with SK-MEL-2 melanoma was 3.12 µM; in the assay with NCI-H23 lung, 3.71 µM; in the assay on SW-620 colon, 2.29 µM; with SK-MEL-5 melanoma it was 2.47 µM; in the assay on HT29 colon it was 3.13 µM; with A549 NSCLC, 3.19 µM. Also, the GI50 was 2.89 µM in the assay with K-562 leukemia, 2.12 µM in the assay on HOP-92 NSCLC, 2.42 µM with IGROV1 ovarian and 2.6 µM in the assay with CAKI-1 renal. Besides, the TGI with SK-MEL-2 melanoma was 38.9 µM; in the assay with NCI-H23 lung, 23.3 µM; in the assay on SW-620 colon, 5.92 µM; in the assay with SK-MEL-5 melanoma, 8.41 µM; with HT29 colon, > 100 µM; in the assay on A549 NSCLC it was > 100 µM. Also, the TGI was > 100 µM with K-562 leukemia, 8.05 µM in the assay on HOP-92 NSCLC, 6.8 µM in the assay on IGROV1 ovarian and 8.91 µM in the assay with CAKI-1 renal.
Regarding `Cc1ccc(NC(=O)c2ccc(CN3CCN(C)CC3)cc2)cc1Nc1nc(-c2cccnc2)cs1`, the GI50 in the assay on SK-MEL-2 melanoma was 13.9 µM and > 10 µM; with NCI-H23 lung, 12.6 µM and > 10 µM; with SW-620 colon it was 5.68 µM and 4.58 µM; in the assay on SK-MEL-5 melanoma, 2.46 µM; in the assay on HT29 colon, 3.5 µM and 3.23 µM; in the assay on A549 NSCLC it was 12.1 µM and 8.01 µM. In addition, the GI50 in the assay on K-562 leukemia is 0.617 µM and 2.96 µM; in the assay with HOP-92 NSCLC, 11 µM and > 10 µM; in the assay with IGROV1 ovarian, 15 µM and 7.66 µM; with CAKI-1 renal, 11.6 µM and > 10 µM. In addition, the TGI is 27.3 µM and > 10 µM in the assay on SK-MEL-2 melanoma; 29.7 µM and > 10 µM with NCI-H23 lung; 19.5 µM and > 10 µM in the assay with SW-620 colon; 9.32 µM in the assay with SK-MEL-5 melanoma; 13.7 µM and > 10 µM in the assay with HT29 colon; 27.1 µM and > 10 µM with A549 NSCLC. Moreover, the TGI in the assay on K-562 leukemia was > 100 µM; with HOP-92 NSCLC, 24.2 µM and > 10 µM; in the assay on IGROV1 ovarian, 35.6 µM and > 10 µM; in the assay with CAKI-1 renal it was 24.9 µM and > 10 µM.
Regarding `COc1ccc(C(=O)C(C(=O)CCC(=O)Nc2ccc(Cl)c(Cl)c2)c2ccc(OC)cc2)cc1` (stereo not drawn), the TGI in the assay on SK-MEL-2 melanoma, in the assay on NCI-H23 lung, with SW-620 colon, in the assay with SK-MEL-5 melanoma, in the assay on HT29 colon and with A549 NSCLC was > 100 µM in each case. Besides, the TGI in the assay on K-562 leukemia, in the assay on HOP-92 NSCLC, in the assay on IGROV1 ovarian and in the assay on CAKI-1 renal was > 100 µM each time.
As to `CC(C)=CCC/C(C)=C/CC/C(C)=C/CSC[C@H](NC(=O)CCCCCN1CCN(C)CC1)C(=O)NC1CCCCCC1`, the GI50 with SK-MEL-2 melanoma was 2.24 µM; in the assay with NCI-H23 lung it was 3.01 µM; with SW-620 colon, 1.87 µM; in the assay with SK-MEL-5 melanoma, 1.77 µM; in the assay on HT29 colon, 2.19 µM; with A549 NSCLC, 2.5 µM. Further, the GI50 in the assay on K-562 leukemia is 2.24 µM; in the assay with HOP-92 NSCLC it was 2.3 µM; with IGROV1 ovarian it was 2.36 µM; in the assay on CAKI-1 renal, 2.84 µM. In addition, the TGI stood at 4.42 µM in the assay with SK-MEL-2 melanoma; 8.78 µM in the assay with NCI-H23 lung; 3.88 µM with SW-620 colon; 3.18 µM with SK-MEL-5 melanoma; 4.74 µM in the assay on HT29 colon; 7.4 µM in the assay on A549 NSCLC. The TGI turned out to be 5.14 µM with K-562 leukemia, 8.39 µM in the assay with HOP-92 NSCLC, 5.31 µM with IGROV1 ovarian and 9.19 µM in the assay with CAKI-1 renal.
In the case of `C/C(=C\C(=O)O[C@H]1[C@@H]2[C@H](C)CC[C@H]2[C@]2(C)O[C@@]1(C1CCCCC1)C[C@H]2OC(=O)CO)c1ccccc1`, the GI50 is 7.05 µM with SK-MEL-2 melanoma; 6.87 µM in the assay on NCI-H23 lung; 6.78 µM in the assay on SW-620 colon; 6.45 µM in the assay with SK-MEL-5 melanoma; 6.47 µM with HT29 colon; 6.61 µM in the assay on A549 NSCLC. Further, the GI50 is 7.82 µM with K-562 leukemia, 2.07 µM in the assay on HOP-92 NSCLC, 7.58 µM in the assay with IGROV1 ovarian and 0.0235 µM in the assay on CAKI-1 renal. In addition, the TGI was determined as 13.4 µM in the assay with SK-MEL-2 melanoma; 13.9 µM in the assay on NCI-H23 lung; 13.3 µM with SW-620 colon; 11.9 µM in the assay with SK-MEL-5 melanoma; 13 µM in the assay with HT29 colon; 12.4 µM in the assay on A549 NSCLC. The TGI worked out at 17.6 µM in the assay with K-562 leukemia, 8.09 µM in the assay on HOP-92 NSCLC, 14.7 µM in the assay on IGROV1 ovarian and 5.01 µM in the assay with CAKI-1 renal.
On to `C=CCC1(O)c2ccccc2C(=O)c2c(OCC(=O)OCC)ccc(OCC(=O)OCC)c21` (stereo not drawn), for which the GI50 with SK-MEL-2 melanoma, in the assay on NCI-H23 lung, in the assay on SW-620 colon, in the assay with SK-MEL-5 melanoma, in the assay on HT29 colon and with A549 NSCLC was > 100 µM each time. Besides, the GI50 with K-562 leukemia was > 100 µM; in the assay on HOP-92 NSCLC, 41.9 µM; in the assay on IGROV1 ovarian it was > 100 µM; with CAKI-1 renal it was > 100 µM. Besides, the TGI in the assay with SK-MEL-2 melanoma, in the assay on NCI-H23 lung, in the assay with SW-620 colon, with SK-MEL-5 melanoma, in the assay on HT29 colon and with A549 NSCLC was > 100 µM each time. Besides, the TGI in the assay on K-562 leukemia, in the assay on HOP-92 NSCLC, in the assay with IGROV1 ovarian and in the assay with CAKI-1 renal was > 100 µM each time.
